Source: patent US7462600B2, “Macrolides” (Pfizer Inc, priority 2004, dated 2008)
Converted amounts (≈) assume the structure as drawn. Where two headings read alike, the source gives them in different places.

How the values were obtained:
Type in all cases: cell-based
[1] = test system: Streptococcus pyogenes 1079; assay: MIC, microtiter broth dilution (NCCLS M100-S14), S. pyogenes 1079 (ermB)
Summary of the method: (§1)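 Broth dilution was run in microtiter trays and read per NCCLS M100-S14 to give MICs. Compounds came from 40 mg/ml DMSO stock solutions. The strain panel paired macrolide-susceptible parents with macrolide-resistant derivatives.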

[2] = test system: Streptococcus pneumoniae 1016; assay: MIC, microtiter broth dilution (NCCLS M100-S14), S. pneumoniae 1016 (susceptible)
Summary of the method: as §1

[3] = test system: Streptococcus pneumoniae 1095; settings: microtiter broth dilution
Summary of the method: as §1

[4] = test system: Streptococcus pneumoniae 1175; settings: microtiter broth dilution
Summary of the method: as §1

[5] = test system: Haemophilus influenzae 1218; assay: MIC, microtiter broth dilution (NCCLS M100-S14), H. influenzae 1218 (susceptible)
Summary of the method: as §1

[6] = S. pneumoniae 1016 (susceptible)
[7] = H. influenzae 1218 (susceptible)

SMILES	MIC S. pyogenes 1079 ([1]; S. pyogenes 1079 (ermB))	MIC S. pneumo. 1016 [2, 6]	MIC S. pneumo. 1095 ([3]; S. pneumoniae 1095 (ermB))	MIC S. pneumo. 1175 ([4]; S. pneumoniae 1175 (mefA))	MIC H. influenzae 1218 [5, 7]	MIC S. pyogenes 1079 ([1]; Streptococcus pyogenes 1079)	MIC S. pneumo. 1016 ([2]; Streptococcus pneumoniae 1016)	MIC S. pneumo. 1095 ([3]; Streptococcus pneumoniae 1095)	MIC S. pneumo. 1175 ([4]; Streptococcus pneumoniae 1175)	MIC H. influenzae 1218 ([5]; Haemophilus influenzae 1218)
CCC1OC(=O)C(C)C(=O)C(C)C(OC2OC(C)CC(N(C)C)C2O)C(C)(OC)CC(C)C(=O)C(C)C2N(CC3CCCN3C(=O)c3cccc4ccncc34)C(=O)OC12C (centres unmarked) [10.37]	16 µg/mL (≈ 18.8 µM)	<0.06 µg/mL	<0.06 µg/mL	<0.06 µg/mL	0.5 µg/mL (≈ 0.588 µM)					
CCC1OC(=O)C(C)C(=O)C(C)C(OC2OC(C)CC(N(C)C)C2O)C(C)(OC)CC(C)C(=O)C(C)C2N(C3CN(S(=O)(=O)c4ccc(S(C)(=O)=O)cc4)C3)C(=O)OC12C (centres unmarked) [Example 3.23, 4-(methylsulfonyl) benzenesulfonyl]						>64.00 µg/mL	<0.06 µg/mL	0.25 µg/mL (≈ 0.282 µM)	<0.06 µg/mL	1 µg/mL (≈ 1.13 µM)
CC[C@H]1OC(=O)[C@H](C)[C@@H](OC(=O)N2CCCC2c2cccc(F)c2)[C@H](C)[C@@H](O[C@@H]2O[C@H](C)C[C@H](N(C)C)[C@H]2O)[C@](C)(OC)C[C@@H](C)C(=O)[C@H](C)[C@H]2N(CC3CN(Cc4c[nH]c5ncccc45)C3)C(=O)O[C@]12C (some centres unmarked) [Example 5.06, 3-descladinosyl-11,12-dideoxy-4-O-methyl-12,11-(oxycarbonyl-(1-((1H-pyrrolo[2,3-b]pyridin-3-yl)-methyl)-(azetidin-3-yl)-methyl)-imino)-3-((2-(3-fluorophenyl)-pyrrolidine)-1-carbonyl)-erythromycin A]						0.25 µg/mL (≈ 0.249 µM)	<0.06 µg/mL	<0.06 µg/mL	<0.06 µg/mL	2 µg/mL (≈ 1.99 µM)
CC[C@H]1OC(=O)[C@H](C)C(=O)[C@H](C)[C@@H](O[C@@H]2O[C@H](C)C[C@H](N(C)C)[C@H]2O)[C@](C)(OC)C[C@@H](C)C(=O)[C@H](C)[C@H]2N(CC3(O)CN(C(=O)c4ccc5nccnc5c4)C3)C(=O)O[C@]12C [7.18]	>64.00 µg/mL	<0.06 µg/mL	0.25 µg/mL (≈ 0.293 µM)	0.25 µg/mL (≈ 0.293 µM)	2 µg/mL (≈ 2.34 µM)					
CCC1OC(=O)C(C)C(=O)C(C)C(OC2OC(C)CC(N(C)C)C2O)C(C)(OC)CC(C)C(=O)C(C)C2N(C3CN(Cc4ccc(Cl)cc4Cl)C3)C(=O)OC12C (centres unmarked) [Example 1.103, 3-descladinosyl-11,12-dideoxy-6-O-methyl-3-oxo-12,11-(oxycarbonyl-(1-(2,4-dichlorobenzene-1-methyl)-azetidin-3-yl)-imino)-erythromycin A]						16 µg/mL (≈ 19.4 µM)	<0.063 µg/mL	<0.063 µg/mL	0.125 µg/mL (≈ 0.151 µM)	0.25 µg/mL (≈ 0.302 µM)
CCC1OC(=O)C(C)C(=O)C(C)C(OC2OC(C)CC(N(C)C)C2O)C(C)(OC)CC(C)C(=O)C(C)C2N(CC3CN(Cc4ccc5cnccn45)C3)C(=O)OC12C (centres unmarked) [4.24]						64 µg/mL (≈ 78.8 µM)	<0.06 µg/mL	0.5 µg/mL (≈ 0.616 µM)	<0.06 µg/mL	0.5 µg/mL (≈ 0.616 µM)
CCC1OC(=O)C(C)C(=O)C(C)C(OC2OC(C)CC(N(C)C)C2O)C(C)(OC)CC(C)C(=O)C(C)C2N(CC3CN(C(=O)c4cccc5ncccc45)C3)C(=O)OC12C (centres unmarked) [4.32]						64 µg/mL (≈ 76.5 µM)	<0.06 µg/mL	0.5 µg/mL (≈ 0.597 µM)	<0.06 µg/mL	1 µg/mL (≈ 1.19 µM)
CC[C@H]1OC(=O)[C@H](C)C(=O)[C@H](C)[C@@H](O[C@@H]2O[C@H](C)C[C@H](N(C)C)[C@H]2O)[C@](C)(OC)C[C@@H](C)C(=O)[C@H](C)[C@H]2N(CC3(O)CN(C(=O)c4cc5ccncc5[nH]4)C3)C(=O)O[C@]12C [7.27]	>64.00 µg/mL	<0.06 µg/mL	<0.06 µg/mL	1 µg/mL (≈ 1.19 µM)	1 µg/mL (≈ 1.19 µM)					
CCC1OC(=O)C(C)C(=O)C(C)C(OC2OC(C)CC(N(C)C)C2O)C(C)(OC)CC(C)C(=O)C(C)C2N(C3CN(S(=O)(=O)c4ccc(-n5ccnc5)cc4)C3)C(=O)OC12C (centres unmarked) [Example 3.82, 3-descladinosyl-11,12-dideoxy-6-O-methyl-3-oxo-12,11-(oxycarbonyl-(1-(4-(1H-imidazol-1-yl)benzenesulfonyl)-azetidin-3-yl)-imino)erythromycin A]						2 µg/mL (≈ 2.29 µM)	<0.06 µg/mL	<0.06 µg/mL	<0.06 µg/mL	0.25 µg/mL (≈ 0.286 µM)
CCC1OC(=O)C(C)C(=O)C(C)C(OC2OC(C)CC(N(C)C)C2O)C(C)(OC)CC(C)C(=O)C(C)C2N(CC3CN(Cc4ccn(-c5ccccn5)n4)C3)C(=O)OC12C.O=CO (centres unmarked) [4.31]						>64.00 µg/mL	<0.06 µg/mL	32 µg/mL	<0.06 µg/mL	0.5 µg/mL
